{"source": "patent US6184374A", "about": "“Targeted cytotoxic anthracycline analogs” (priority 1998, dated 2001)", "key": {"breast cancer receptors": {"biological_target": "T1, breast cancer receptors (Homo sapiens, UniProt P30968)", "T1 construct": "from tissue", "T1 sequence (P30968 1-328)": "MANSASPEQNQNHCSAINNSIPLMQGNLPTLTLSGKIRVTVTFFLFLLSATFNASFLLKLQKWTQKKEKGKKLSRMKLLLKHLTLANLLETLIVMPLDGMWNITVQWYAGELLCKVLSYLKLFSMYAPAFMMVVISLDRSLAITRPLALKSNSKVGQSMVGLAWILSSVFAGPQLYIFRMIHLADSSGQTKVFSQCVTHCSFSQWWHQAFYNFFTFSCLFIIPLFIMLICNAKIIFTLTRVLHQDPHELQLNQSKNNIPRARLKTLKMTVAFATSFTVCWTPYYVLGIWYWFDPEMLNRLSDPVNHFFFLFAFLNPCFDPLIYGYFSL", "experiment": "Receptor binding potency, breast cancer receptors"}, "[1]": {"system": "estrogen independent MXT mouse mammary cancers", "experiment": "Single treatment of estrogen independent MXT mouse mammary cancers (KS-55)", "format": "in vivo", "conditions": "single dose of 650 nmol/20 g mouse (as printed in text)", "procedure": "In order to determine the maximum tolerated doses and compare the effects, MXT (3.2) ovex tumor pieces (1 mm^3) were implanted s.c. in female B6 D2 F1 mice. One day after transplantation the mice were randomly divided into groups of five animals and they were treated with a single injection i.p. The groups and doses are shown in the Table 25-1. […] The compounds were dissolved in 0.1% TFA (pH: 2.0). Tumor volume was measured on days 10, 13, 17, and 20."}, "rat pituitary receptors": {"biological_target": "T2, rat pituitary receptors (Rattus norvegicus, UniProt P30969)", "T2 construct": "from tissue; host or cells: rat pituitary", "T2 sequence (P30969 1-327)": "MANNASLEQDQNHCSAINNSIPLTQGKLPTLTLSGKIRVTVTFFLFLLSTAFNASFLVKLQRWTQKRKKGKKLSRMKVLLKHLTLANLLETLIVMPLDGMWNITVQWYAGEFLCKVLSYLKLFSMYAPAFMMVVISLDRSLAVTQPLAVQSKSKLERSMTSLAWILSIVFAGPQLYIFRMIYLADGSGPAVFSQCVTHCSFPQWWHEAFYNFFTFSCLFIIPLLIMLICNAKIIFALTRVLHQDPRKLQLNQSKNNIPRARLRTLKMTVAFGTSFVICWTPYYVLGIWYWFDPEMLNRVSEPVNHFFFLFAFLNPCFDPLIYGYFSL", "experiment": "Receptor binding potency, rat pituitary receptors"}, "[2]": {"biological_target": "T3, bombesin receptors on Swiss 3T3 cell line (Mus musculus, UniProt P21729)", "T3 construct": "host or cells: Swiss 3T3 cells", "T3 sequence (P21729 whole entry)": "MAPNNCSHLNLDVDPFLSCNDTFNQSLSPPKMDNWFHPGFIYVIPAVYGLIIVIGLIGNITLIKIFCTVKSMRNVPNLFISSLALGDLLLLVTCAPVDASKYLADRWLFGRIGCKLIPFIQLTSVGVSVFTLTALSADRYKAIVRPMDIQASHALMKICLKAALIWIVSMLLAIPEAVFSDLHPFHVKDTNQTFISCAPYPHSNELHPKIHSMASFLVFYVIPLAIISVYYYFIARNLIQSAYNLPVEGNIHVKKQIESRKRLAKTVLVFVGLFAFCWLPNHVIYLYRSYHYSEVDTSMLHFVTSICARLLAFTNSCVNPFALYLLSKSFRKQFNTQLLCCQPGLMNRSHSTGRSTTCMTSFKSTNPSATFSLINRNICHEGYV", "experiment": "Displacement of [125I-Tyr4]BN binding on Swiss 3T3 cells", "procedure": "Radio iodination of [Tyr^4 ]BN (Sigma) using a Bio-Rad Enzymobead Radio lodination kit and isolation of mono-iodinated [^125 l-Tyr^4 ]BN was performed as described earlier (1). […] Three to five days after seeding, the confluent cells were washed twice with Hanks' Balanced Salt Solution (HBSS) and incubated for 30 min at 37° C. with 50 pM [^125 l-Tyr^4 ]BN in the absence or presence of several concentrations of unlabeled competitors (Q6^14 gB or BN) in a total volume of 0.5 ml binding buffer (DMEM with 50 mM HEPES, 0.1% bovine serum albumin (BSA), 5 mM MgCl2 and 100 μg/ml bacitracin, pH: 7.4). Nonspecific binding was determined in the presence of 1 μM unlabeled ligand. After three washings with ice-cold HBSS containing 0.1% BSA (pH: 7.4) the cells were detached with 0.05% Trypsin/0.53 mM EDTA solution and transferred to tubes. Radioactivity was measured with a gamma-counter (Micromedic Systems Inc, Huntsville, Ala.). Binding data were evaluated using radio ligand binding analysis programs by McPherson (4). Ki values presented in Table 23-1, were calculated according to the formula of Cheng and Prusoff (5)."}, "[3]": {"system": "estrogen independent MXT mouse mammary cancers", "experiment": "Effect of cytotoxic LH-RH analogs on estrogen independent MXT mouse mammary cancers (KS-47)", "format": "in vivo", "conditions": "daily dose of 30 nmol (equimolar) i.p. for 12 days", "procedure": "MXT (3.2) ovex tumor pieces (1 mm^3) were transplanted in female B6 D2 F1 mice. The treatment started one day after transplantation and was continued for 12 days by i.p. injections once a day. Tumors were measured on days 10, 14 and 18, and tumor volume was calculated."}, "LH-responses": {"system": "LH-responses", "experiment": "Hormonal activity of LH-RH analogs (LH-responses rel. to LH-RH)", "format": "cell-based", "conditions": "relative to LH-RH = 1"}}}
{"smiles": "COc1cccc2c1C(=O)c1c(O)c3c(c(O)c1C2=O)C[C@@](O)(C(=O)COC(=O)CCCC(=O)NCCCC[C@@H](NC(=O)[C@H](Cc1ccc(O)cc1)NC(=O)[C@H](CO)NC(=O)[C@H](Cc1c[nH]c2ccccc12)NC(=O)[C@H](Cc1c[nH]cn1)NC(=O)[C@@H]1CCC(=O)N1)C(=O)N[C@@H](CC(C)C)C(=O)N[C@@H](CCCNC(=N)N)C(=O)N1CCC[C@H]1C(=O)NCC(N)=O)C[C@@H]3O[C@H]1C[C@H](N)[C@H](O)[C@H](C)O1", "note": "[Q1^14 gL, [D-Lys^6 (DOX^14 -O-glt)]LH-RH]", "values": [{"measurement": "IC50", "setting": "breast cancer receptors", "value": 7.24, "unit": "nM"}, {"measurement": "Toxicity", "setting": "[1]", "value": "nontoxic"}, {"measurement": "IC50", "setting": "rat pituitary receptors", "value": 2.29, "unit": "nM"}]}
{"smiles": "COc1cccc2c1C(=O)c1c(O)c3c(c(O)c1C2=O)C[C@@](O)(C(=O)COC(=O)CCCC(=O)N[C@@H](CCC(N)=O)C(=O)N[C@@H](Cc1c[nH]c2ccccc12)C(=O)N[C@@H](C)C(=O)N[C@H](C(=O)NCC(=O)N[C@@H](Cc1c[nH]cn1)C(=O)N[C@H](CN[C@@H](CC(C)C)C(N)=O)CC(C)C)C(C)C)C[C@@H]3O[C@H]1C[C@H](N2C=CCC2)[C@H](O)[C@H](C)O1", "note": "[Q6^14 gB, 2-pyrrolino-DOX^14 -O-glt-Gln-Trp-Ala-Val-Gly-His-Leu.PSI.(CH2 --NH)Leu-NH2]", "values": [{"measurement": "Ki", "setting": "[2]", "value": 1, "unit": "nM"}]}
{"smiles": "COc1cccc2c1C(=O)c1c(O)c3c(c(O)c1C2=O)C[C@@](O)(C(=O)COC(=O)CCCC(=O)NCCCC[C@@H](NC(=O)[C@H](Cc1ccc(O)cc1)NC(=O)[C@H](CO)NC(=O)[C@H](Cc1c[nH]c2ccccc12)NC(=O)[C@H](Cc1c[nH]cn1)NC(=O)[C@@H]1CCC(=O)N1)C(=O)N[C@@H](CC(C)C)C(=O)N[C@@H](CCCNC(=N)N)C(=O)N1CCC[C@H]1C(=O)NCC(N)=O)C[C@@H]3O[C@H]1C[C@H](N2C=CCC2)[C@H](O)[C@H](C)O1", "note": "[Q6^14 gL, [D-Lys^6 (2-pyrrolino-DOX^14 -O-glt)]LH-RH]", "values": [{"measurement": "IC50", "setting": "breast cancer receptors", "value": 6.7, "unit": "nM"}, {"measurement": "IC50", "setting": "rat pituitary receptors", "value": 5.59, "unit": "nM"}]}
{"smiles": "CC(C)C[C@H](NC(=O)[C@@H](CCCCN)NC(=O)[C@H](Cc1ccc(O)cc1)NC(=O)[C@H](CO)NC(=O)[C@H](Cc1c[nH]c2ccccc12)NC(=O)[C@H](Cc1c[nH]cn1)NC(=O)[C@@H]1CCC(=O)N1)C(=O)N[C@@H](CCCNC(=N)N)C(=O)N1CCC[C@H]1C(=O)NCC(N)=O", "note": "[[D-Lys^6]LH-RH]", "values": [{"measurement": "IC50", "setting": "breast cancer receptors", "value": 1.8, "unit": "nM"}, {"measurement": "Effect on tumor growth", "setting": "[3]", "value": "did not affect tumor growth"}, {"measurement": "Mean survival after transplantation", "setting": "[3]", "value": 23.5, "unit": "days"}, {"measurement": "Mean tumor volume on day 10", "setting": "[3]", "value": 165, "unit": "mm^3"}, {"measurement": "Mean tumor volume on day 14", "setting": "[3]", "value": 1348, "unit": "mm^3"}, {"measurement": "Mean tumor volume on day 18", "setting": "[3]", "value": 4003, "unit": "mm^3"}, {"measurement": "Hormonal activity (LH-responses rel. to LH-RH = 1)", "setting": "LH-responses", "value": 8}]}
